Laboratory results reported in US20260109707A1, “HETEROBIFUNCTIONAL COMPOUNDS AND METHODS OF TREATING DISEASE” (Halda Therapeutics OpCo. Inc., priority 2022, published 2026).
Read-outs that look alike come from different tables or passages of the source.

Key:
[1] = tested on: T-Rex 293 cell line SC3 cells having increased expression of androgen receptor protein due to exposure to doxycycline; assay: Cellular growth inhibition assay, T-Rex 293 SC3 cells with doxycycline (CellTiter-Glo, 72 hours); type: cell-based; settings: T-Rex 293 SC3 cells with increased androgen receptor expression due to doxycycline (10 ng/mL)
Summary of the method: (§1)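 Growth inhibition is measured in an inducible AR-expressing T-Rex 293 clone, SC3, cultured with or without 10 ng/mL doxycycline in hormone-depleted medium. Test compounds are applied for 72 hours. GI50 values derive from CellTiter-Glo 2.0 signal fitted by four-parameter regression.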

[2] = tested on: T-Rex 293 cell line SC3 cells lacking increased expression of androgen receptor protein; assay: Cellular growth inhibition assay, T-Rex 293 SC3 cells without doxycycline (CellTiter-Glo, 72 hours); type: cell-based; settings: T-Rex 293 cell line SC3 cells not exposed to doxycycline (lacking increased androgen receptor expression)
Summary of the method: as §1

VCaP cells = assay: Cellular growth inhibition assay for VCaP cells (CellTiter-Glo, 72 hours); type: cell-based, human
Summary of the method: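 Luminescent viability signal after 72 h of compound exposure gave GI50 values by four-parameter nonlinear regression. Compounds were added in 0.5% DMSO to cells plated 24 h earlier at 5000/well in DMEM containing 10% FBS.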

Structure (SMILES)	GI50 ([1]; 72 h)	GI50 ([2]; 72 h)	GI50 (VCaP cells; Homo sapiens, VCaP, 72 h)	GI50 (VCaP cells)	GI50 [1]	GI50 [2]
Cc1sc2c(c1C)C(c1ccc(CCCC3CCN(c4ccc(C(=O)N[C@H]5CC[C@H](Oc6ccc(C#N)c(Cl)c6)CC5)nn4)CC3)cc1)=N[C@@H](C)c1nnc(C)n1-2 [I-592]	< 500 nM	< 500 nM	< 500 nM	–	–	–
COCC[C@@H]1N=C(c2ccc(C3CCC4(CCN(c5ccc(C(=O)N[C@H]6CC[C@H](Oc7ccc(C#N)c(Cl)c7)CC6)nn5)CC4)C3)cc2)c2c(sc(C)c2C)-n2c(C)nnc21 (stereo partly drawn) [I-616]	< 500 nM	< 500 nM	–	> 3000 nM	–	–
COC[C@@H]1N=C(c2ccc(N3CCC4(CCN(c5ccc(C(=O)N[C@H]6CC[C@H](Oc7ccc(C#N)c(Cl)c7)CC6)nn5)CC4)C3)cc2)c2c(sc(C)c2C)-n2c(C)nnc21 [I-615]	< 500 nM	< 500 nM	< 500 nM	–	–	–
Cc1sc2c(c1C)C(c1ccc(C3CCC4(CC3)CCN(c3ccc(C(=O)N[C@H]5CC[C@H](Oc6ccc(C#N)c(Cl)c6)CC5)nn3)C4)cc1)=NC(C(F)(F)F)c1nnc(C)n1-2 (mixture of isomers) [I-742]	–	–	–	< 500 nM	> 3000 nM	> 3000 nM
Cc1sc2c(c1C)C(c1ccc(N3CCC4CN(c5ccc(C(=O)N[C@H]6CC[C@H](Oc7ccc(C#N)c(Cl)c7)CC6)nn5)CCC4C3)cc1)=N[C@@H](C)c1nnc(C)n1-2 (stereo partly drawn) [I-554]	< 500 nM	–	500 to 1500 nM	–	–	> 3000 nM
CCNC(=O)C[C@@H]1N=C(c2ccc(N3CCC(OC4CN(c5ccc(C(=O)N[C@H]6CC[C@H](Oc7ccc(C#N)c(Cl)c7)CC6)nn5)C4)CC3)cc2)c2c(sc(C)c2C)-n2c(C)nnc21 [I-58]	< 500 nM	500 to 1500 nM	< 500 nM	–	–	–
Cc1sc2c(c1C)C(c1cccc(OCCC3CCN(c4ccc(C(=O)N[C@H]5CC[C@H](Oc6ccc(C#N)c(Cl)c6)CC5)nn4)CC3)c1)=N[C@@H](C)c1nnc(C)n1-2 [I-647]	< 500 nM	> 3000 nM	< 500 nM	–	–	–
Cc1sc2c(c1C)C(c1ccc(N3CCC4(CCCN(c5ccc(C(=O)N[C@H]6CC[C@H](Oc7ccc(C#N)c(Cl)c7)CC6)nn5)C4)CC3)cn1)=NC1(CC1)c1nnc(C)n1-2 [I-501]	< 500 nM	> 3000 nM	< 500 nM	–	–	–
Cc1sc2c(c1C)C(c1ccc(N3CCC4(CC3)CCN(c3ccc(C(=O)N[C@H]5CC[C@H](Oc6ccc(C#N)c(Cl)c6)CC5)nn3)C4)cc1)=NC(C(F)(F)F)c1nnc(C)n1-2 (single isomer, unassigned) [I-720]	–	–	–	> 3000 nM	> 3000 nM	> 3000 nM
Cc1sc2c(c1C)C(c1ccc(CCC3CC4(CCCN(c5ccc(C(=O)N[C@H]6CC[C@H](Oc7ccc(C#N)c(Cl)c7)CC6)nn5)C4)C3)cn1)N[C@@H](Cc1ncco1)c1nnc(C)n1-2 (stereo partly drawn) [I-644]	–	–	–	< 500 nM	< 500 nM	> 3000 nM
Cc1sc2c(c1C)C(c1ccc(C3CCC4(CCN(c5ccc(C(=O)N[C@H]6CC[C@H](Oc7ccc(C#N)c(Cl)c7)CC6)nn5)CC4)C3)nc1)=NC1(CC1)c1nnc(C)n1-2 (stereo partly drawn) [I-609]	< 500 nM	–	< 500 nM	–	–	500 to 1500 nM
Cc1sc2c(c1C)C(c1ccc(N3C[C@@H]4CN(c5ccc(C(=O)N[C@H]6CC[C@@H](Oc7ccc(C#N)c(Cl)c7)CC6)nn5)C[C@@H]4C3)cc1)=N[C@@H](Cc1ncco1)c1nnc(C)n1-2 [I-825, 6-[(3aR,6aS)-2-[4-[(9S)-4,5,13-trimethyl-9-(oxazol-2-ylmethyl)-3-thia-1,8,11,12-tetrazatricyclo[8.3.0.02,6]trideca-2(6),4,7,10,12-pentaen-7-yl]phenyl]-1,3,3a,4,6,6a-hexahydropyrrolo[3,4-c]pyrrol-5-yl]-N-[4-(3-chloro-4-cyano-phenoxy)cyclohexyl]pyridazine-3-carboxamide]	< 500 nM	< 500 nM	< 500 nM	–	–	–
Cc1sc2c(c1C)C(c1ccc(C#CC3CC(Cc4ccc(C(=O)N[C@H]5CC[C@H](Oc6ccc(C#N)c(Cl)c6)CC5)nn4)C3)cc1)=N[C@@H](Cc1ncco1)c1nnc(C)n1-2 (stereo partly drawn) [I-645]	< 500 nM	–	< 500 nM	–	–	> 3000 nM
Cc1sc2c(c1C)C(c1ccc(OCC3CC4(CCCN(c5ccc(C(=O)N[C@H]6CC[C@H](Oc7ccc(C#N)c(Cl)c7)CC6)nn5)C4)C3)cc1)=NC1(CC1)c1nnc(C)n1-2 (stereo partly drawn) [I-471]	–	–	–	1500 to 3000 nM	< 500 nM	> 3000 nM
Cc1sc2c(c1C)C(c1ccc(N3CC4(CC(Cc5ccc(C(=O)N[C@H]6CC[C@H](Oc7ccc(C#N)c(Cl)c7)CC6)nn5)C4)C3)cc1)=N[C@@H](C)c1nnc(C)n1-2 [I-604]	< 500 nM	< 500 nM	< 500 nM	–	–	–
Cc1sc2c(c1C)C(c1ccc(C#CC3CC4(CCCN(c5ccc(C(=O)N[C@H]6CC[C@H](Oc7ccc(C#N)c(Cl)c7)CC6)nn5)C4)C3)nc1)=N[C@@H](C)c1nnc(C)n1-2 (stereo partly drawn) [I-460]	–	–	–	< 500 nM	< 500 nM	500 to 1500 nM
